Measured values published in patent US20130041005A1, “PHARMACEUTICAL COMPOSITIONS COMPRISING NEUROPILIN INHIBITORS, AND THEIR USE FOR THE PREVENTION AND/OR TREATMENT OF ANGIOGENIC DISORDERS AND CANCERS” (TRAGEX PHARMA, priority 2011, published 2013).

Biological target: T1, NRP-1 (Homo sapiens, UniProt O14786)
T1 construct: purchased R&D Systems, UK 3870-N1-025
T1 sequence (O14786 22-644 isoform O14786-2 limits assumed): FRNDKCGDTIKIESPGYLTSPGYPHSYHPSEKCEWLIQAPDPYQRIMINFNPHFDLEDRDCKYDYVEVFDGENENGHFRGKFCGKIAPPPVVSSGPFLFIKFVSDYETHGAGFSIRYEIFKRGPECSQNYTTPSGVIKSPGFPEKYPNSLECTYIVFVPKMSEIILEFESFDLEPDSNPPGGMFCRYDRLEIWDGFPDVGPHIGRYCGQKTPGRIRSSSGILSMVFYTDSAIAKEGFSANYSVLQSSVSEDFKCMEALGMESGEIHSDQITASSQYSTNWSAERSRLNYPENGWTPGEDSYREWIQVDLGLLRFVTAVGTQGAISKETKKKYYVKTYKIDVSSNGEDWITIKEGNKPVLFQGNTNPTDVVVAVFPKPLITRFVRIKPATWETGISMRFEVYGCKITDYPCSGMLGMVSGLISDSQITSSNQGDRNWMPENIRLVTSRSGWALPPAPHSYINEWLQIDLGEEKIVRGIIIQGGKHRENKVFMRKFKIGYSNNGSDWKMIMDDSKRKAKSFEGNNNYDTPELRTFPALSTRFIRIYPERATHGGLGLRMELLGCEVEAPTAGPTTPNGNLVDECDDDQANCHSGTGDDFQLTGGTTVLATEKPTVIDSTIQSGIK
Test: ELISA inhibition of VEGF binding to NRP-1
Details: for inhibition at 10 µM: compounds at 10 μM
Procedure: Elisa test was performed covering a 96-well microplate (BD Biosciences, France, cat no 353046) surface with 100 μl of 1×PBS, pH 7.4 with Ca^2+ and Mg^2+, (Lonza, France, cat no 17-513F/12) solution containing 0.2 μg/ml of VEGF-R1 (R&D Systems, UK, cat no 321-FL-050/CF) or 2 μg/ml of NRP-1 (R&D Systems, UK, cat no 3870-N1-025) or NRP-2 (R&D Systems, UK, cat no […]). The plate was sealed and incubated overnight at 4° C. After 3 washes with 200 μl of 1×PBS 0.5% (v/v) Tween 20 (Sigma, France, cat no 34078) (Buffer A), the plate was blocked by adding 200 μl of 1×PBS with 0.5% (w/v) BSA (Eurobio, France, cat no GAUBSA01-65) and agitated at 37° C. for 2 h. After washing five times with Buffer A, 50 μl/well of the compounds of the invention at 10 μM were added for the specific signal and 50 μl/well for the non-specific and max binding signal and incubated at 37° C. for 1 hour, shacking. 50 μl of btVEGF (R&D Systems, UK, cat no NFVEO) at […] for NRP-1/4 μg/ml Heparin (Sigma, USA, cat no H3393-10KU), 300 μg/ml for NRP-2 and 100 μg/ml for VEGF-R1 solution was added to each well; the plate was sealed and incubated at 37° C. for 2 h, shacking. The last incubation was carried out, after five washes with Buffer A, adding 100 μl/well Streptavidin-Horseradish Peroxidase (Amersham, Switzerland, cat no RPN4401) diluted 1:8000 with buffer A. After 1 h shacking at 37° C. under obscurity, the plate was washed 5 times with buffer A and 100 μl of SuperSignal west picochemiluminescent substrate (Interchim, USA cat no 34078) were added. Luminescence was quantified with an EnVision™ 2101 Multilabel reader (Perkin Elmer, USA) and the data analyzed by Wallac Envision manager software. Signal is given as relative light units (RLU). Non-specific binding is defined as the signal measured in the absence of receptor coated on the microplate. The specific binding was calculated as the difference between total binding and non-specific binding. The percentage of inhibition was calculated as following: […]

| SMILES | IC50 | inhibition at 10 µM |
| --- | --- | --- |
| O=C(NC(=S)Nc1cccc(-c2nc3ccccc3[nH]2)c1)c1ccc2c(c1)OCCO2 [Compound 2, N-[3-(1H-benzimidazol-2-yl)phenyl]-N′-(2,3-dihydro-1,4-benzodioxin-6-ylcarbonyl)thiourea] | 34 ± 3.11 µM | 24 ± 2% |
| Cc1ccc(-c2nc3ccccc3[nH]2)cc1NC(=S)NC(=O)c1ccc2c(c1)OCCO2 [Compound 1, N-[5-(1H-benzimidazol-2-yl)-2-methylphenyl]-N′-(2,3-dihydro-1,4-benzodioxin-6-ylcarbonyl)thiourea] | 38 ± 2.08 µM | 35 ± 4% |
